Results on 5 molecules are retold here after patent US20100119655A1, “MUSCULAR PROTEIN DENATURATION INHIBITOR, ADDITIVE FOR A FISH MEAT-ORIGIN GROUND MEAT, FISH MEAT-ORIGIN GROUND MEAT CONTAINING THE SAME AND METHOD OF PRODUCING THE SAME” (Nagasaki Prefectural Government, priority 2007, published 2010).

For one assay, the target named is T1, myosin (Cyprinus carpio, UniProt Q90339).
T1 construct: myofibrils were prepared from dorsal meat of carp (Cyprinus carpio); from tissue; host or cells: dorsal muscle of carp
The assay is described as follows: Heat denaturation of myosin at 35° C., followed by loss of Ca-ATPase activity (denaturation rate constant KD). It counts as biochemical, carp (Cyprinus carpio). Conditions: compound added by 1M; myosin heated at 35° C.; FIG. 1. The text has this:
(§1) In this embodiment, determination of the effect of inhibiting denaturation of fish meat-origin muscular proteins employs a method for calculating a rate of denaturation of myosin based on disappearance of Ca-ATPase activity as bioactivity of myosin {Tohru Oizumi et al.: Gyoruikingenseni-no-kanetsuhensei-ni-taisuru-to-oyobi-toarukohru-no-hogokohka-no-teiryokosatsu (Quantitative Examination of Effect of Protecting Sugars and Sugar Alcohols from Heat Denaturation of Fish Myofibril. Journal of the Japanese Society of Fisheries Science, 47, 901-908 (1981)}. Said method in this embodiment will be described as follows by dividing into a method for determining the effect of inhibiting heat denaturation and a method for determining effect of inhibiting freeze denaturation.
(§2) Firstly, a method for determining the effect of inhibiting heat denaturation is described. […] Then, changes in Ca-ATPase activity of the fish meat-origin muscular proteins heated are analyzed according to a first-order reaction equation to calculate a denaturation rate constant (KD). Ca-ATPase activity is measured by preparing a reaction composition liquid composed of 0.5M KCl, 25 mM Tris-maleate (pH 7.0), 5 mM CaCl2, 1 mM ATP and 0.2 to 0.3 mg/ml of fish meat-origin muscular proteins subjected to heating and ice cold and determining free inorganic phosphate quantitatively. Then, denaturation rate constant is calculated from Ca-ATPase activity obtained and heating time. Consequently, if the denaturation rate constant is smaller, the effect of inhibiting denaturation of fish meat-origin muscular proteins is significant, and if the denaturation rate constant is larger, the effect of inhibiting denaturation of fish meat-origin muscular proteins is small.
After myofibrils were prepared from dorsal meat of carp (Cyprinus carpio) according to a method by Noboru Katoh et al. {Noboru Katoh et al.: Gyruikingenseni-ATPase-no-seikagakuteki-kenkyu (Biochemical Research of Fish Myofibrillary ATPase). Journal of the Japanese Society of Fisheries Science, 43, 857-867 (1977)}, the myofibrils were dissolved in 0.5M KCl in the presence of ATP-Mg and 40 to 55% ammonium sulfate fraction was used as myosin by ammonium sulfate fractionation. […] After 5% perchloric acid was added thereto to stop the reaction and filter the product, free inorganic phosphate was subjected to colorimetric determination by phosphomolybdic acid method to calculate a logarithmic value of denaturation rate constant.

For assay [1], the system named is myofibrillar proteins. In words: Heat denaturation of myofibrillar proteins at 42° C., followed by loss of Ca-ATPase activity (denaturation rate constant KD). Conditions: for decline of rate of denaturation of myofibrillar proteins (logarithmic value of denaturation rate constant KD): compound added by 1M, myofibrils heated at 42° C., FIG. 2. It counts as biochemical, carp (Cyprinus carpio).
Source text: as §1, §2
After 5% perchloric acid was added thereto to stop the reaction and filter the product, free inorganic phosphate was subjected to colorimetric determination by phosphomolybdic acid method to calculate a logarithmic value of denaturation rate constant.

In assay [2] the test system is myofibrillar proteins. The assay is described as follows: Freeze denaturation of myofibrillar proteins, remaining Ca-ATPase activity after cryopreservation at −20° C. Type of assay: biochemical, carp (Cyprinus carpio). Conditions: approximately 1 month, FIG. 3. On the procedure: Next, a method for determining the effect of inhibiting freeze denaturation will be described. […] In this case, a comparison is made not by an absolute value of denaturation rate constant but a relative value thereof. The measurement of Ca-ATPase activity is the same as above.
The myofibrils were taken approximately 1 month later and added to 0.5M KCl, 25 mM Tris-maleate (pH 7.0), 5 mM CaCl2 and 1 mM ATP to prepare a reaction composition liquid to be reacted at 25° C. After 5% perchloric acid was added thereto to stop the reaction and filter the product, free inorganic phosphate was subjected to colorimetric determination by phosphomolybdic acid method to calculate Ca-ATPase activity and analyze the extent of denaturation observed from the decline of Ca-ATPase activity.

In assay [3] the test system is myofibrillar proteins. To be noted: relative to sorbitol; Non-Patent Document 1; cited from earlier work.
The subject of assay [4] is myofibrillar proteins. In words: Dissolution of myofibrillar proteins, soluble proteins in supernatant after centrifugal separation. To be noted: addition of 0.6M; FIG. 4. It counts as biochemical, carp (Cyprinus carpio).

T1 sequence (Q90339 whole entry): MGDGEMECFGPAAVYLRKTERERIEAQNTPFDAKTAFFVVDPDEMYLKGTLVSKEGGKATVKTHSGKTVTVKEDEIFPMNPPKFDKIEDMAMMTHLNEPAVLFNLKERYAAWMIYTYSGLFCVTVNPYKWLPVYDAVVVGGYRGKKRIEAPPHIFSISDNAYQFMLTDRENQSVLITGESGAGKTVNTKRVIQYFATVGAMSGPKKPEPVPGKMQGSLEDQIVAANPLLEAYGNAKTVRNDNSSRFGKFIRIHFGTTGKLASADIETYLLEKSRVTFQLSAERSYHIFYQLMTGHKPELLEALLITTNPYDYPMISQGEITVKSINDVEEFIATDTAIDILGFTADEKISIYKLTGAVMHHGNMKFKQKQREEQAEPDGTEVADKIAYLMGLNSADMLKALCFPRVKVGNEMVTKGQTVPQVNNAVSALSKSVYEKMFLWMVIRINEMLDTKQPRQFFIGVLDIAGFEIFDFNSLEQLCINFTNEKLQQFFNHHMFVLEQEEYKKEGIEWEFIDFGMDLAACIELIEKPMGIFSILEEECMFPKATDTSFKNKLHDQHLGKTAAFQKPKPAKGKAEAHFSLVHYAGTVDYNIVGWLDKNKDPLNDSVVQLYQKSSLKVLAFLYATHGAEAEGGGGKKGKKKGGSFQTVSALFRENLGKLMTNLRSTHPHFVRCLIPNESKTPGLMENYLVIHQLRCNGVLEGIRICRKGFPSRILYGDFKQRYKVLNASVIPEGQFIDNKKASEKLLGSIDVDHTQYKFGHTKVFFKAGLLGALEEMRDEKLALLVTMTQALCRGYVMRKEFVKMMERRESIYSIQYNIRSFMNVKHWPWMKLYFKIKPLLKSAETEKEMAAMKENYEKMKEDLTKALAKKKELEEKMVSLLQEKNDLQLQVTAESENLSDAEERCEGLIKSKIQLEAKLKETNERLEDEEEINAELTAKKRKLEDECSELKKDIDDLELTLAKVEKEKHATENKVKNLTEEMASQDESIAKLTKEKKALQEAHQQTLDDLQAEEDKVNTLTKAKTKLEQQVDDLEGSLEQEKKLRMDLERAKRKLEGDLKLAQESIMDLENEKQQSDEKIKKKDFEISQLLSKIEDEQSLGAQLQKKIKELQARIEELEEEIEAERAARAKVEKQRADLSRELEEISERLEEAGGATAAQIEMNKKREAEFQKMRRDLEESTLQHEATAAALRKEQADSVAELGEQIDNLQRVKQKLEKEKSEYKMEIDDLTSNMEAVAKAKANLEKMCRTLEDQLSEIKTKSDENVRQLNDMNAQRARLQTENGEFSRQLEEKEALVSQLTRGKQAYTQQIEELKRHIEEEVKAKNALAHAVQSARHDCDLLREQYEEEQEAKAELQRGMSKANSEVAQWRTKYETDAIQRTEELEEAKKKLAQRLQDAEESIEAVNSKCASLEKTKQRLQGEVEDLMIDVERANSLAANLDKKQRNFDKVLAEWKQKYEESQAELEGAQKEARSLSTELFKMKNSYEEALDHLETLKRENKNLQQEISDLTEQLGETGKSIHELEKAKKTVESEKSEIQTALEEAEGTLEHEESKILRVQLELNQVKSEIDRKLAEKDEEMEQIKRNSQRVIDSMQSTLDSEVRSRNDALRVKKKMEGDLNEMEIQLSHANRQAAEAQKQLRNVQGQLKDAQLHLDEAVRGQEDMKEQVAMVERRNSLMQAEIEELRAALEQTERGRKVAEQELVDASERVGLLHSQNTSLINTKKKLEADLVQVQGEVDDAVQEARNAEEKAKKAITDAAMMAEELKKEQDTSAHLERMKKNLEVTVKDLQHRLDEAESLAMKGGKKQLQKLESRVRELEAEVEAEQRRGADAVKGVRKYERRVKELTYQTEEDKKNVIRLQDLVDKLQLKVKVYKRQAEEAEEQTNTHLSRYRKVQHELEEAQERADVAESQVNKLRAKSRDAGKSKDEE

Consider `CC(=O)[O-].[Na+]` [sodium acetate], for which, on myosin, the “decline of rate of denaturation of myosin (logarithmic value of denaturation rate constant KD)” value was determined as 1.1. In addition, in the assay on myofibrillar proteins [1], the “decline of rate of denaturation of myofibrillar proteins (logarithmic value of denaturation rate constant KD)” value amounted to 0.3. The “effect of inhibiting freeze denaturation (Ca-ATPase activity), ranking” value (“effect of inhibiting freeze denaturation” below) in the assay on myofibrillar proteins [2] was “smallest effect of inhibiting freeze denaturation”.

Regarding `O=C([O-])CC(O)(CC(=O)[O-])C(=O)[O-].[Na+].[Na+].[Na+]` [sodium citrate], the “decline of rate of denaturation of myosin (logarithmic value of denaturation rate constant KD)” value on myosin came out at 1.7. Also, the “decline of rate of denaturation of myofibrillar proteins (logarithmic value of denaturation rate constant KD)” value with myofibrillar proteins [1] worked out at 0.9. Also, the “effect of stabilizing myofibrillar proteins, times sodium gluconate” value in the assay with myofibrillar proteins [1] (relative to sodium gluconate, worked out from own data and Non-Patent Document 1) is recorded as “at least 1.3 times”. The “effect of inhibiting freeze denaturation” value in the assay with myofibrillar proteins [2] is reported as “strongest effect of inhibiting freeze denaturation”.

Take `N[C@@H](CCC(=O)[O-])C(=O)[O-].[Na+].[Na+]` [sodium glutamate]: the “decline of rate of denaturation of myosin (logarithmic value of denaturation rate constant KD)” value at myosin is 1.7. Moreover, the “decline of rate of denaturation of myofibrillar proteins (logarithmic value of denaturation rate constant KD)” value with myofibrillar proteins [1] is given as 0.9. For the same molecule, in the assay with myofibrillar proteins [2], the “effect of inhibiting freeze denaturation” value was “strongest effect of inhibiting freeze denaturation”.

`O=C([O-])[C@H](O)[C@@H](O)[C@H](O)[C@H](O)CO.[Na+]` [sodium gluconate]: the “inhibition of heat denaturation of myofibrillar proteins, times sorbitol” value with myofibrillar proteins [3] is listed as “about 1.5 times”.

On to `OC[C@@H](O)[C@@H](O)[C@H](O)[C@@H](O)CO` [sorbitol], for which the “decline of rate of denaturation of myosin (logarithmic value of denaturation rate constant KD)” value at myosin was found to be 0.7. Also, in the assay with myofibrillar proteins [1], the “decline of rate of denaturation of myofibrillar proteins (logarithmic value of denaturation rate constant KD)” value was found to be 0.6. Besides, in the assay with myofibrillar proteins [2], the “effect of inhibiting freeze denaturation” value is “smallest effect of inhibiting freeze denaturation, followed by sorbitol”. In addition, the “dissolution of myofibrillar proteins at 0.6M, in words” value in the assay with myofibrillar proteins [4] was “not dissolved at all”.
